Assay results as given in US6689773B2, “Uracil substituted phenyl sulfamoyl carboxamides” (BASF Aktiengesellschaft, priority 2000, dated 2004).

What was measured:
Type in all cases: in vivo
[1] = test system: ALOMY, Blackgrass, Alopecurus myosuroides; assay: Postemergence herbicidal evaluation (Example 147); conditions: rating scale 0-9, two to three weeks after treatment
Experimental: (§1) Seedling plants were grown in jiffy flats for about two weeks. The test compounds were dispersed in 80/20 acetone/water mixtures containing 1.0% SUN-IT®II, a methylated seed oil, in sufficient quantities to provide the equivalent of about 0.016 to 0.032 kg per hectare of active compound when applied to the plants through a spray nozzle operating at 40 psi for a predetermined time. After spraying, the plants were placed on greenhouse benches and were cared for in accordance with conventional greenhouse procedures. Approximately two to three weeks after treatment, the seedling plants were examined and rated according to the rating scale (0-9) set forth below. Where more than one test is involved for a given compound, the data are averaged. [table] The scale is based upon a visual observation of plant stand, vigor, malformation, size, chlorosis and overall plant appearance as compared with a control. Plant species employed in these evaluations are reported by header abbreviation, common name and scientific name. [table]

[2] = test system: IPOHE, Morningglory, Ivyleaf, Ipomoea hederacea, (L)Jacq.; assay: Postemergence herbicidal evaluation (Example 147); conditions: rating scale 0-9, two to three weeks after treatment
Experimental: as §1

[3] = test system: CHEAL, Lambsquarters, Chenopodium album, L. Common; assay: Postemergence herbicidal evaluation (Example 147); conditions: rating scale 0-9, two to three weeks after treatment
Experimental: as §1

[4] = test system: ECHCG, Barnyardgrass, Echinochloa crusgalli, (L.)Beau; assay: Postemergence herbicidal evaluation (Example 147); conditions: rating scale 0-9, two to three weeks after treatment
Experimental: as §1

[5] = test system: DIGSA, Crabgrass, (Hairy) L, Digitaria sanguinalis, (L)Scop; assay: Postemergence herbicidal evaluation (Example 147); conditions: rating scale 0-9, two to three weeks after treatment
Experimental: as §1

[6] = test system: AMBEL, Ragweed, Common, Ambrosia artemiisifolia, L.; assay: Postemergence herbicidal evaluation (Example 147); conditions: rating scale 0-9, two to three weeks after treatment
Experimental: as §1

[7] = test system: SETVI, Green foxtail, Setaria viridis, (L.)Beau; assay: Postemergence herbicidal evaluation (Example 147); conditions: rating scale 0-9, two to three weeks after treatment
Experimental: as §1

[8] = test system: GLXMA, Soybean, Glycine max, (L.) Merr.; assay: Postemergence herbicidal evaluation (Example 147); conditions: rating scale 0-9, two to three weeks after treatment
Experimental: as §1

[9] = test system: XANST, Cocklebur, Xanthium strumariam; assay: Postemergence herbicidal evaluation (Example 147); conditions: rating scale 0-9, two to three weeks after treatment
Experimental: as §1

[10] = test system: ABUTH, Velvetleaf, Abutilon theophrasti, Medic.; assay: Postemergence herbicidal evaluation (Example 147); conditions: rating scale 0-9, two to three weeks after treatment
Experimental: as §1

[11] = test system: TRZAW, Winter wheat, Tritium Aestivum, L. (Winter); assay: Postemergence herbicidal evaluation (Example 147); conditions: rating scale 0-9, two to three weeks after treatment
Experimental: as §1

[12] = test system: ZEAMX, Field corn, Zea mays L.; assay: Postemergence herbicidal evaluation (Example 147); conditions: rating scale 0-9, two to three weeks after treatment
Experimental: as §1

[13] = test system: ALOMY, Blackgrass, Alopecurus myosuroides; assay: Preemergence herbicidal evaluation (Example 148); conditions: rating scale 0-9, two to four weeks after treatment
Experimental: (§2) The scale is based upon a visual observation of plant stand, vigor, malformation, size, chlorosis and overall plant appearance as compared with a control.
(§3) The herbicidal activity of the compounds of the present invention was evaluated by the following tests wherein the seeds of a variety of monocotyledonous and dicotyledonous plants were separately mixed with potting soil and planted on top of approximately one inch of soil in separate pint cups. After planting, the cups were sprayed with the selected aqueous acetone solution containing test compound in sufficient quantity to provide the equivalent of about 0.125 to 0.250 kg per hectare of test compound per cup. The treated cups were then placed on greenhouse benches, watered and cared for in accordance with conventional greenhouse procedures. From two to four weeks after treatment, the tests were terminated and each cup was examined and rated according to the rating system provided in Example 94. When more than one test was performed for a given compound, the data were averaged.

[14] = test system: IPOHE, Morningglory, Ivyleaf, Ipomoea hederacea, (L)Jacq.; assay: Preemergence herbicidal evaluation (Example 148); conditions: rating scale 0-9, two to four weeks after treatment
Experimental: as §2, §3

[15] = test system: CHEAL, Lambsquarters, Chenopodium album, L. Common; assay: Preemergence herbicidal evaluation (Example 148); conditions: rating scale 0-9, two to four weeks after treatment
Experimental: as §2, §3

[16] = test system: ECHCG, Barnyardgrass, Echinochloa crusgalli, (L.)Beau; assay: Preemergence herbicidal evaluation (Example 148); conditions: rating scale 0-9, two to four weeks after treatment
Experimental: as §2, §3

[17] = test system: DIGSA, Crabgrass, (Hairy) L, Digitaria sanguinalis, (L)Scop; assay: Preemergence herbicidal evaluation (Example 148); conditions: rating scale 0-9, two to four weeks after treatment
Experimental: as §2, §3

[18] = test system: AMBEL, Ragweed, Common, Ambrosia artemiisifolia, L.; assay: Preemergence herbicidal evaluation (Example 148); conditions: rating scale 0-9, two to four weeks after treatment
Experimental: as §2, §3

[19] = test system: SETVI, Green foxtail, Setaria viridis, (L.)Beau; assay: Preemergence herbicidal evaluation (Example 148); conditions: rating scale 0-9, two to four weeks after treatment
Experimental: as §2, §3

[20] = test system: GLXMA, Soybean, Glycine max, (L.) Merr.; assay: Preemergence herbicidal evaluation (Example 148); conditions: rating scale 0-9, two to four weeks after treatment
Experimental: as §2, §3

[21] = test system: ABUTH, Velvetleaf, Abutilon theophrasti, Medic.; assay: Preemergence herbicidal evaluation (Example 148); conditions: rating scale 0-9, two to four weeks after treatment
Experimental: as §2, §3

[22] = test system: TRZAW, Winter wheat, Tritium Aestivum, L. (Winter); assay: Preemergence herbicidal evaluation (Example 148); conditions: rating scale 0-9, two to four weeks after treatment
Experimental: as §2, §3

[23] = test system: ZEAMX, Field corn, Zea mays L.; assay: Preemergence herbicidal evaluation (Example 148); conditions: rating scale 0-9, two to four weeks after treatment
Experimental: as §2, §3

[24] = test system: XANST, Cocklebur, Xanthium strumariam; assay: Preemergence herbicidal evaluation (Example 148); conditions: rating scale 0-9, two to four weeks after treatment
Experimental: as §2, §3

SMILES: CCN(C)S(=O)(=O)NC(=O)c1cc(-n2c(=O)cc(C(F)(F)F)n(C)c2=O)c(F)cc1Cl [Example 66]
- Postemergence herbicidal rating ALMOY ([1]; rate 0.016 kg/ha): 1.0
- Postemergence herbicidal rating ALMOY ([1]; rate 0.032 kg/ha): 2.0
- Postemergence herbicidal rating IPOHE ([2]; rate 0.016 kg/ha): 9.0
- Postemergence herbicidal rating IPOHE ([2]; rate 0.032 kg/ha): 9.0
- Postemergence herbicidal rating CHEAL ([3]; rate 0.016 kg/ha): 8.0
- Postemergence herbicidal rating CHEAL ([3]; rate 0.032 kg/ha): 9.0
- Postemergence herbicidal rating ECHCG ([4]; rate 0.016 kg/ha): 8.0
- Postemergence herbicidal rating ECHCG ([4]; rate 0.032 kg/ha): 8.0
- Postemergence herbicidal rating DIGSA ([5]; rate 0.016 kg/ha): 5.0
- Postemergence herbicidal rating DIGSA ([5]; rate 0.032 kg/ha): 6.0
- Postemergence herbicidal rating AMBEL ([6]; rate 0.016 kg/ha): 9.0
- Postemergence herbicidal rating AMBEL ([6]; rate 0.032 kg/ha): 9.0
- Postemergence herbicidal rating SETVI ([7]; rate 0.016 kg/ha): 8.0
- Postemergence herbicidal rating SETVI ([7]; rate 0.032 kg/ha): 9.0
- Postemergence herbicidal rating GLXMA ([8]; rate 0.016 kg/ha): 8.0
- Postemergence herbicidal rating GLXMA ([8]; rate 0.032 kg/ha): 9.0
- Postemergence herbicidal rating XANST ([9]; rate 0.016 kg/ha): 9.0
- Postemergence herbicidal rating XANST ([9]; rate 0.032 kg/ha): 9.0
- Postemergence herbicidal rating ABUTH ([10]; rate 0.016 kg/ha): 9.0
- Postemergence herbicidal rating ABUTH ([10]; rate 0.032 kg/ha): 9.0
- Postemergence herbicidal rating TRZAW ([11]; rate 0.016 kg/ha): 5.0
- Postemergence herbicidal rating TRZAW ([11]; rate 0.032 kg/ha): 6.5
- Postemergence herbicidal rating ZEAMX ([12]; rate 0.016 kg/ha): 7.0
- Postemergence herbicidal rating ZEAMX ([12]; rate 0.032 kg/ha): 7.5
- Preemergence herbicidal rating ALMOY ([13]; rate 0.125 kg/ha): 0.0
- Preemergence herbicidal rating ALMOY ([13]; rate 0.25 kg/ha): 2.0
- Preemergence herbicidal rating IPOHE ([14]; rate 0.125 kg/ha): 9.0
- Preemergence herbicidal rating IPOHE ([14]; rate 0.25 kg/ha): 9.0
- Preemergence herbicidal rating CHEAL ([15]; rate 0.125 kg/ha): 9.0
- Preemergence herbicidal rating CHEAL ([15]; rate 0.25 kg/ha): 9.0
- Preemergence herbicidal rating ECHCG ([16]; rate 0.125 kg/ha): 4.0
- Preemergence herbicidal rating ECHCG ([16]; rate 0.25 kg/ha): 8.0
- Preemergence herbicidal rating DIGSA ([17]; rate 0.125 kg/ha): 4.0
- Preemergence herbicidal rating DIGSA ([17]; rate 0.25 kg/ha): 8.0
- Preemergence herbicidal rating AMBEL ([18]; rate 0.125 kg/ha): 9.0
- Preemergence herbicidal rating AMBEL ([18]; rate 0.25 kg/ha): 9.0
- Preemergence herbicidal rating SETVI ([19]; rate 0.125 kg/ha): 4.0
- Preemergence herbicidal rating SETVI ([19]; rate 0.25 kg/ha): 6.0
- Preemergence herbicidal rating GLXMA ([20]; rate 0.125 kg/ha): 0.0
- Preemergence herbicidal rating ABUTH ([21]; rate 0.125 kg/ha): 9.0
- Preemergence herbicidal rating ABUTH ([21]; rate 0.25 kg/ha): 9.0
- Preemergence herbicidal rating TRZAW ([22]; rate 0.125 kg/ha): 1.0
- Preemergence herbicidal rating TRZAW ([22]; rate 0.25 kg/ha): 1.0
- Preemergence herbicidal rating ZEAMX ([23]; rate 0.125 kg/ha): 1.0
- Preemergence herbicidal rating ZEAMX ([23]; rate 0.25 kg/ha): 2.0

SMILES: COc1cccc(CN(C)S(=O)(=O)NC(=O)c2cc(-n3c(=O)cc(C(F)(F)F)n(C)c3=O)c(F)cc2Cl)c1 [Example 70]
- Postemergence herbicidal rating ALMOY ([1]; rate 0.016 kg/ha): 1.0
- Postemergence herbicidal rating ALMOY ([1]; rate 0.032 kg/ha): 1.0
- Postemergence herbicidal rating IPOHE ([2]; rate 0.016 kg/ha): 9.0
- Postemergence herbicidal rating IPOHE ([2]; rate 0.032 kg/ha): 9.0
- Postemergence herbicidal rating CHEAL ([3]; rate 0.016 kg/ha): 6.0
- Postemergence herbicidal rating CHEAL ([3]; rate 0.032 kg/ha): 7.0
- Postemergence herbicidal rating ECHCG ([4]; rate 0.016 kg/ha): 4.0
- Postemergence herbicidal rating ECHCG ([4]; rate 0.032 kg/ha): 8.0
- Postemergence herbicidal rating DIGSA ([5]; rate 0.016 kg/ha): 2.0
- Postemergence herbicidal rating DIGSA ([5]; rate 0.032 kg/ha): 3.0
- Postemergence herbicidal rating AMBEL ([6]; rate 0.016 kg/ha): 5.0
- Postemergence herbicidal rating AMBEL ([6]; rate 0.032 kg/ha): 7.0
- Postemergence herbicidal rating SETVI ([7]; rate 0.016 kg/ha): 4.0
- Postemergence herbicidal rating SETVI ([7]; rate 0.032 kg/ha): 5.0
- Postemergence herbicidal rating GLXMA ([8]; rate 0.016 kg/ha): 6.5
- Postemergence herbicidal rating GLXMA ([8]; rate 0.032 kg/ha): 7.5
- Postemergence herbicidal rating ABUTH ([10]; rate 0.016 kg/ha): 9.0
- Postemergence herbicidal rating ABUTH ([10]; rate 0.032 kg/ha): 9.0
- Postemergence herbicidal rating TRZAW ([11]; rate 0.016 kg/ha): 4.5
- Postemergence herbicidal rating TRZAW ([11]; rate 0.032 kg/ha): 5.0
- Postemergence herbicidal rating ZEAMX ([12]; rate 0.016 kg/ha): 7.0
- Postemergence herbicidal rating ZEAMX ([12]; rate 0.032 kg/ha): 7.0
- Preemergence herbicidal rating ALMOY ([13]; rate 0.125 kg/ha): 0.0
- Preemergence herbicidal rating ALMOY ([13]; rate 0.25 kg/ha): 0.0
- Preemergence herbicidal rating IPOHE ([14]; rate 0.125 kg/ha): 9.0
- Preemergence herbicidal rating IPOHE ([14]; rate 0.25 kg/ha): 9.0
- Preemergence herbicidal rating CHEAL ([15]; rate 0.125 kg/ha): 8.0
- Preemergence herbicidal rating CHEAL ([15]; rate 0.25 kg/ha): 9.0
- Preemergence herbicidal rating ECHCG ([16]; rate 0.125 kg/ha): 2.0
- Preemergence herbicidal rating ECHCG ([16]; rate 0.25 kg/ha): 7.0
- Preemergence herbicidal rating DIGSA ([17]; rate 0.125 kg/ha): 2.0
- Preemergence herbicidal rating DIGSA ([17]; rate 0.25 kg/ha): 5.0
- Preemergence herbicidal rating AMBEL ([18]; rate 0.125 kg/ha): 9.0
- Preemergence herbicidal rating AMBEL ([18]; rate 0.25 kg/ha): 9.0
- Preemergence herbicidal rating SETVI ([19]; rate 0.125 kg/ha): 3.0
- Preemergence herbicidal rating SETVI ([19]; rate 0.25 kg/ha): 5.0
- Preemergence herbicidal rating GLXMA ([20]; rate 0.125 kg/ha): 1.0
- Preemergence herbicidal rating GLXMA ([20]; rate 0.25 kg/ha): 3.0
- Preemergence herbicidal rating XANST ([24]; rate 0.125 kg/ha): 8.0
- Preemergence herbicidal rating XANST ([24]; rate 0.25 kg/ha): 9.0
- Preemergence herbicidal rating ABUTH ([21]; rate 0.125 kg/ha): 9.0
- Preemergence herbicidal rating ABUTH ([21]; rate 0.25 kg/ha): 9.0
- Preemergence herbicidal rating TRZAW ([22]; rate 0.125 kg/ha): 0.0
- Preemergence herbicidal rating TRZAW ([22]; rate 0.25 kg/ha): 1.0
- Preemergence herbicidal rating ZEAMX ([23]; rate 0.125 kg/ha): 0.0
- Preemergence herbicidal rating ZEAMX ([23]; rate 0.25 kg/ha): 0.0
